Reference: patent US9364414B2, “Method to protect skin from ultraviolet radiation using novel peptides involved in the improvement of microparasol organization in keratinocytes” (ISP Investments Inc., priority 2011, dated 2016)
Ends that are not written are not given here.

How the values were obtained:
[1] = tested on: keratinocytes containing melanosomes (NHK/NHEM co-culture); assay: Frequency of keratinocytes containing melanosomes in NHK/NHEM co-culture after p150Glued siRNA; assay type: cell-based, human; settings: after 10 nM p150Glued siRNA, 48 hours
Protocol: Normal human primary keratinocytes (NHK) and normal human epidermal melanocytes (NHEM) were co-cultured (ratio: 1 melanocyte/4 keratinocytes) in Keratinocyte Serum Free Medium (KSFM, GIBCO) supplemented with 50 μg/ml bovine pituitary extract, 5 ng/ml human recombinant EGF (GIBCO) and 100 μg/ml Primocin™ (INVIVOGEN). Cells were maintained at 37° C. in a humidified atmosphere containing 5% CO2.
NHK and NHEM cells co-seeded for 48 hours were treated, or not, in duplicate, once with 10 nM of p150Glued-specific siRNA.
Cells were then treated, or not, in duplicate, twice a day for 48 hours with a solution of peptide compound SEQ ID NO: 7 at 100 ppm, diluted at 0.5% or 1% before use, without medium change.
Cells were rinsed with PBS and fixed with cold methanol for 4 minutes. Cellular membranes were permeabilized using 0.1% X-100 Triton (Fisher Scientific) for 10 minutes. Unspecific binding sites were blocked, then cells were incubated with the primary antibodies directed to melanosomes (mouse monoclonal anti-“pmel17” Abcam, ab34165 and rabbit monoclonal anti “keratin-14” Abcam, ab51054) diluted in PBS, for 1 hour and a half, under agitation, at room temperature, in a damp room. […]
Three images per condition were analyzed. […] The frequency of keratinocyte containing melanosomes was evaluated and expressed in percentage. […]

[2] = tested on: dynactin subunit p150Glued; assay: Expression of p150Glued in ex-vivo human skin biopsies (immunostaining); assay type: cell-based; settings: 100 ppm stock diluted at 1%, twice a day, 48 hours
Protocol: Samples of ex-vivo human skin biopsies from a person, were cultured at the air/liquid interface. The samples were treated twice a day with a stock solution of peptide SEQ ID NO: 7 at 100 ppm, diluted at the 1%, for 48 hours.
Immunostaining was then performed by means of an antibody directed to p150Glued subunit (REF.Santacruz sc-9804), followed by a secondary antibody, coupled with a green fluorescent marker (REF Invitrogen, A11055). The skin sections were then examined using Nikon® Eclipse 80i microscope.
Quantification was carried out with VOLOCITY® image analysis software.

[3] = tested on: normal human keratinocytes (NHK); assay: Comet assay on NHK cells irradiated with UVB; assay type: cell-based
Protocol: (§1) NHK and NHEM were placed in culture for 24 hours in the presence of a solution of peptide compound SEQ ID NO: 7 at 50 ppm diluted at 1% before use, then irradiated with UVB radiation in an amount of 30 mJ/cm^2 for NHEM and 60 mJ/cm^2 for NHK. A control condition was also used without a peptide active agent. The cells were then detached from their support by trypsin, then centrifuged at 900 rpm for 5 minutes in order to concentrate them and count them.
(§2) A defined number of cells (25,000 cells) was then embedded in a Low Melting agarose gel at 0.75%, then deposited on a glass slide previously coated with 1% agarose. The slides were then immersed in a lysis solution for 1 hour 30 minutes at 4° C., then in an alkaline solution for 20 minutes at 4° C. The cells were thus lysed and the DNA was denatured. The slides were immersed in an electrophoresis solution before an electric field (20 V-250 mA) is applied. The DNA thus denatured was subjected to migration in the agarose gel at 4° C. The application of a fluorescent DNA dye on the slides (propidium iodide at 2 μg/ml) makes it possible to observe, under the microscope, DNA appearing in the form of comets if it has been damaged.
(§3) Finally, quantification software makes it possible to determine the Tail Moment, means applied to each condition tested. […]

[4] = tested on: normal human epidermal melanocytes (NHEM); assay: Comet assay on NHEM cells irradiated with UVB; assay type: cell-based; settings: peptide 1% (0.5 ppm) 24 hours pretreatment + UVB 30 mJ/cm^2
Protocol: as §1, §2, §3

[5] = tested on: cyclobutane pyrimidine dimers (CPDs) in NHEM; assay: Amount of cyclobutane pyrimidine dimers (CPDs) in melanocytes after UVB (immunostaining); assay type: cell-based, human; settings: UVB 75 mJ/cm^2
Protocol: DNA damages induced by UVB radiation can be monitored by quantifying the amount of cyclobutane pyrimidine dimers (CPDs), which are formed after conformational changes in the DNA structure. […] The quantification of CPDs was carried out by immunohistochemical assay.
NHEM (normal human epidermis melanocytes) were grown in Melanocyte Growth Medium (PromoCell) supplemented with 1 ng/ml human basic fibroblast growth factor, 52 μg/ml medium bovine pituitary extract, 0.5 μg/ml hydrocortisone, 5 μg/ml human recombinant insulin, 10 ng/ml phorbol 12-myristate 13-acetate (PMA) and 100 μg/ml of PRIMOCIN (In vivoGen). When the cells were sub-cultured for the experiment, the same medium depleted in PMA was used. Cells were maintained at 37° C. in a humidified atmosphere containing 5% of CO2.
Cells were treated, or not, in duplicate, twice a day for 48 hours with a solution of peptide compound SEQ ID NO: 7 at 100 ppm, diluted at 0.5% or 1% before use. Then, they were irradiated, or not, with a 75 mJ/cm^2 UVB dose using a specific oven to ensure the homogeneity of the treatment. […]
Three images per condition were analyzed. Each picture was converted in grey levels and analyzed with Image-Pro Analyzer 6.3 software (MediaCybernetics, Inc.) which generated a histogram representing the number of pixels per intensity. The sum of all intensities was calculated. […]

[6] = tested on: supranuclear organization of melanosomes in ex-vivo skin; assay: Microparasol supranuclear organization in ex-vivo skin (light and electron microscopy); assay type: cell-based, human; settings: 0.5% (light microscopy) or 1% (electron microscopy), 48 hours
Protocol: 6 mm diameter punch biopsies were obtained from a person (light microscopy) and a person (electron microscopy) […]. They were cultivated on culture medium containing 50% of DMEM 1 g/L glucose (Lonza) and 50% of Ham's-F12 (Lonza) supplemented with 10% of FBS (Lonza), 2 mM of L-glutamine (Lonza) and 100 μg/ml of PRIMOCIN™ (InvivoGen). Skin biopsies were maintained at 37° C. in a humidified atmosphere containing 5% of CO2.
The stock solution of peptide compound SEQ ID NO: 7 was diluted at 0.5% or 1% before use. The biopsies were treated, or not, in duplicate, twice a day with 0.5% (light microscopy) or 1% (electron microscopy) of peptide compound SEQ ID NO: 7 for 48 hours.
After skin culture, tissues were fixed for 4 hours in buffered 10% formalin. Samples were transferred to baths with ethanol progressively concentrated to remove water, then followed by two baths of xylene to remove the alcohol, and finally embedded in molten paraffin wax. Embedded skin biopsies were then cut with a microtome (Shandon) into 4 μm thick sections and placed on SUPERFROST PLUS™ slides (Thermo Scientific).
Sections were deparaffinized and rehydrated with several successive xylene, alcohol and water baths. Then, 100 μl of Stock solution were added on each section and slides were incubated 10 minutes at 60° C. […]

Question: With “Asp-Leu-Lys-Lys-NH2 (DLKK-NH2) [SEQ ID NO: 7]” as the substance, how does the “frequency of keratinocyte containing melanosomes compared to the control” value ([1]; peptide 0.5% (0.5 ppm)) read?
Answer: Its value is “partially restored”.

Question: And the “frequency of keratinocyte containing melanosomes compared to the control” value ([1]; peptide 1% (1 ppm))?
Answer: Its value is “fully restored”.

Question: What about the “increase of the dynactin subunit p150Glued staining” value [2] of the same substance?
Answer: The value was 80%.

Question: And the “reduction in Tail Moment versus UVB condition” value ([3]; peptide 1% (0.5 ppm) 24 hours pretreatment + UVB 60 mJ/cm^2)?
Answer: The value was 70%.

Question: And the “Tail Moment” value ([3]; peptide 1% (0.5 ppm) 24 hours pretreatment + UVB 60 mJ/cm^2, UVB alone 170.27, control 1.66)?
Answer: The value was 51.36.

Question: And the “reduction in Tail Moment versus UVB condition” value [4]?
Answer: Its value is 55%.

Question: And the “change of CPDs after UVB compared to the non treated condition” value ([5]; pretreated 48 hours with 0.5% (0.5 ppm))?
Answer: The value was −39%.

Question: And the “change of CPDs after UVB compared to the non treated condition” value ([5]; pretreated 48 hours with 1% (1 ppm))?
Answer: The value was −59%.

Question: And the “supranuclear organization of melanosomes above the nucleus” value [6]?
Answer: The value was “better supranuclear organization of melanosomes”.
